Test results as given in the supplement of paper PMC10307832.

How the values were obtained:
Assay in all cases: relative viability (nuclei count vs DMSO), 5 days (fraction); higher = more cells survive
Linsitinib + Palbociclib = compound: C[C@]1(O)C[C@@H](c2nc(-c3ccc4ccc(-c5ccccc5)nc4c3)c3c(N)nccn32)C1 [Linsitinib] + CC(=O)c1c(C)c2cnc(Nc3ccc(N4CCNCC4)cn3)nc2n(C2CCCC2)c1=O [Palbociclib] (partner 0.5 µM)
Outline: (§1)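 Lung cancer cell lines, seeded in 1536-well plates, were treated the following day by pin tool with a single drug or with five library-drug doses (not always all listed) in √10 steps on top of a fixed anchor-drug dose. Cells were fixed and nuclei stained in one step after 5 days, and nuclei were counted. Relative viability is the nuclei count for treated wells divided by that for vehicle wells, reported as medians of duplicate plates.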

Ispinesib + Luminespib = compound: Cc1ccc(C(=O)N(CCCN)[C@@H](c2nc3cc(Cl)ccc3c(=O)n2Cc2ccccc2)C(C)C)cc1 [Ispinesib] + CCNC(=O)c1noc(-c2cc(C(C)C)c(O)cc2O)c1-c1ccc(CN2CCOCC2)cc1 [Luminespib] (partner 0.01 µM)
Outline: as §1

Ispinesib + Foretinib = compound: Cc1ccc(C(=O)N(CCCN)[C@@H](c2nc3cc(Cl)ccc3c(=O)n2Cc2ccccc2)C(C)C)cc1 [Ispinesib] + COc1cc2c(Oc3ccc(NC(=O)C4(C(=O)Nc5ccc(F)cc5)CC4)cc3F)ccnc2cc1OCCCN1CCOCC1 [Foretinib] (partner 0.25 µM)
Outline: as §1

Ispinesib + Decitabine = compound: Cc1ccc(C(=O)N(CCCN)[C@@H](c2nc3cc(Cl)ccc3c(=O)n2Cc2ccccc2)C(C)C)cc1 [Ispinesib] + Nc1ncn([C@H]2C[C@H](O)[C@@H](CO)O2)c(=O)n1 [Decitabine] (partner 2 µM)
Outline: as §1

Cell Line	relative viability (Linsitinib + Palbociclib; first compound 0.01 µM)	relative viability (Linsitinib + Palbociclib; first compound 0.03162 µM)	relative viability (Linsitinib + Palbociclib; first compound 0.1 µM)	relative viability (Linsitinib + Palbociclib; first compound 0.3162 µM)	relative viability (Linsitinib + Palbociclib; first compound 1 µM)	relative viability (Ispinesib + Luminespib; first compound 0.001 µM)	relative viability (Ispinesib + Luminespib; first compound 0.003162 µM)	relative viability (Ispinesib + Luminespib; first compound 0.01 µM)	relative viability (Ispinesib + Luminespib; first compound 0.03162 µM)	relative viability (Ispinesib + Luminespib; first compound 0.1 µM)	relative viability (Ispinesib + Foretinib; first compound 0.001 µM)	relative viability (Ispinesib + Foretinib; first compound 0.003162 µM)	relative viability (Ispinesib + Foretinib; first compound 0.01 µM)	relative viability (Ispinesib + Foretinib; first compound 0.03162 µM)	relative viability (Ispinesib + Foretinib; first compound 0.1 µM)	relative viability (Ispinesib + Decitabine; first compound 0.001 µM)	relative viability (Ispinesib + Decitabine; first compound 0.003162 µM)	relative viability (Ispinesib + Decitabine; first compound 0.01 µM)	relative viability (Ispinesib + Decitabine; first compound 0.03162 µM)	relative viability (Ispinesib + Decitabine; first compound 0.1 µM)
NCI-H1734	0.338	0.394	0.334	0.313	0.31	0.179	0.0914	0.177	0.192	0.157	0.809	0.859	1.08	0.827	0.343	0.538	0.528	0.591	0.54	0.391
NCI-H1755	0.475	0.48	0.467	0.345	0.444	0.292	0.641	0.423	0.315	0.441	0.909	0.987	1.01	0.874	0.737	0.704	0.771	0.758	0.75	0.72
NCI-H1793	0.288	0.342	0.283	0.26	0.26	0.198	0.169	0.749	0.144	0.162	0.711	0.585	0.958	0.637	0.194	0.411	0.473	0.624	0.524	0.229
NCI-H1915	0.514	0.595	0.473	0.489	0.307	0.979	0.987	1.13	0.706	0.385	1.15	1.16	1.33	1.03	0.425	0.233	0.281	0.268	0.291	0.229
NCI-H1944	0.398	0.418	0.286	0.303	0.296	0.75	0.781	0.968	0.475	0.617	0.797	0.908	0.9	0.627	0.677	0.416	0.412	0.467	0.417	0.443
NCI-H1975	0.571	0.588	0.517	0.429	0.39	0.231	0.217	0.21	0.351	0.198	0.996	0.934	1.05	0.632	0.144	0.382	0.436	0.37	0.288	0.221
NCI-H1993	0.646	0.668	0.484	0.686	0.456	0.801	0.45	1.01	0.821	0.634	0.694	0.786	0.802	0.756	0.633	0.679	0.667	0.555	0.678	0.479
NCI-H2009	0.119	0.203	0.19	0.105	0.24	1.12	1.13	1.19	0.769	0.251	1.28	1.33	1.32	1.09	0.431	0.447	0.365	0.383	0.366	0.244
NCI-H2023	0.4	0.245	0.37	0.256	0.26	0.793	0.628	1.07	0.29	0.179	0.966	0.755	0.807	0.457	0.168	0.226	0.233	0.247	0.129	0.103
NCI-H2085	0.434	0.465	0.493	0.445	0.478	0.484	0.421	0.491	0.401	0.447	0.838	1.06	1.05	0.848	0.371	0.487	0.524	0.581	0.577	0.556
NCI-H2087	0.205	0.268	0.15	0.175	0.299	0.168	0.159	0.189	0.14	0.151	1.17	1.14	1.45	0.901	0.209	0.346	0.297	0.241	0.194	0.122
NCI-H2126	0.345	0.365	0.347	0.352	0.334	0.927	1.02	1.03	0.844	0.428	1.27	1.35	1.39	1.14	1.03	0.541	0.536	0.57	0.551	0.559
NCI-H2170	0.386	0.4	0.381		0.412	0.74	0.53	0.964	0.351	0.448	0.997	1.03	0.96	0.806	0.359	0.518	0.532	0.548	0.46	0.379
NCI-H2342	0.677	0.524	0.521	0.531	0.54	0.746	0.768	0.698	0.703	0.592	1.16	1	1	1.09	0.793	0.821	0.756	0.76	0.743	0.78
NCI-H2347	0.372	0.498	0.468	0.34	0.399	0.375	0.503	0.624	0.359	0.469		1.12	1.16	0.669	0.904	0.625	0.618	0.597	0.578	0.589
NCI-H2405	0.503	0.537	0.521	0.47	0.473	0.651	0.733	0.677	0.637	0.52	1.04	1.06	1.02	1.07	0.978	0.754	0.741	0.845	0.831	0.695
